{"source": "paper PMC8750527", "about": "(Cancers, 2021)", "key": {"[1]": {"tested_on": "children presenting with refractory or recurrent tumors", "settings": "phase I study ref 20; cited from earlier work"}, "[2]": {"test": "LC/MS measurement of axitinib in rat cerebellum", "type": "in vivo", "settings": "after 28 days of 50 mg/kg/day oral gavage", "excerpt": "The experiments were approved by Comité National Institutionnel d’Ethique pour l’Animal de Laboratoire (France). The rats were bled and the brains were recovered and flash-frozen at the end of the experiment."}, "subcutaneous DAOY tumors": {"tested_on": "subcutaneous DAOY tumors", "settings": "oral, thrice a week; axitinib 50 mg/kg, etoposide 30 mg/kg, combination 25 + 15 mg/kg", "procedure": "For subcutaneous xenograft experiments, tumor cells expressing the luciferase (350,000 HDMB-Luc cells and 1.10^6 DAOY-Luc cells) were resuspended in 200 µL of 5 µg/mL Matrigel (Corning Inc., Corning, NY, USA) and injected subcutaneously in the flank of 5-week-old Rj:NMRI-Foxn1 nude (nu/nu) female mice (Janvier Labs, Le Genest-Saint-Isle, France). Saline solution (NaCl 0.9M; 100 µL) containing 30 mg/mL D-Luciferin (Perkin Elmer, Wellesley, MA, USA) was injected intraperitoneally in the animals and the bioluminescence was quantified using an In Vivo Imaging System (Perkin Elmer, Wellesley, MA, USA) according to the manufacturer’s instructions. Tumor volume (V = L × l2 × 0.52) was determined with a caliper and the endpoint was determined as a tumor volume of 1000 mm^3. […] The mice were sacrificed when the tumor reached 1000 mm^3. […]\n(§1) The growth rate of the tumors generated with HD-MB03 cells was determined using a linear regression method applied to the growth curves between the sizes of 400 mm^3 up to the endpoint using Prism 5 (Graphpad Software Inc., San Diego, CA, USA).\nTumor samples were recovered from the animals and embedded in the OCT compound according to the manufacturer’s protocol (Thermo Fisher Scientific Inc., Waltham, MA, USA). […] All the images were then quantified with the CellProfiler 3.0 software."}, "HD-MB03": {"tested_on": "HD-MB03", "test": "Cumulative population doubling (CPD), HD-MB03", "type": "cell-based, human", "settings": "continuous treatment; axitinib 5 µM, etoposide 1 µM", "procedure": "(§2) Cumulative population doubling (CPD) was assessed as previously described. Briefly, depending on the cell line, a variable number of cells corresponding to about 30% confluency were seeded in triplicate in 60 mm diameter Petri dishes. […] The cells were harvested when the confluency reached about 90%, counted and plated again at a dilution of 1/20. CPD was calculated as previously described."}, "barrier formed by HUVEC": {"tested_on": "barrier formed by HUVEC", "test": "In vitro endothelium permeability assay (FITC-Dextran), HUVEC", "type": "cell-based, human", "settings": "3-day treatment, nontoxic doses", "procedure": "This assay was conducted as previously described. […] Permeability was measured by the passage of 40 kDa FITC-Dextran through the inserts. Fluorescence intensity measures were normalized to the DMSO control."}, "[3]": {"tested_on": "subcutaneous HD-MB03 tumors", "test": "Subcutaneous HD-MB03 xenografts", "type": "in vivo, mouse", "settings": "oral, thrice a week", "procedure": "For subcutaneous xenograft experiments, tumor cells expressing the luciferase (350,000 HDMB-Luc cells and 1.10^6 DAOY-Luc cells) were resuspended in 200 µL of 5 µg/mL Matrigel (Corning Inc., Corning, NY, USA) and injected subcutaneously in the flank of 5-week-old Rj:NMRI-Foxn1 nude (nu/nu) female mice (Janvier Labs, Le Genest-Saint-Isle, France). Saline solution (NaCl 0.9M; 100 µL) containing 30 mg/mL D-Luciferin (Perkin Elmer, Wellesley, MA, USA) was injected intraperitoneally in the animals and the bioluminescence was quantified using an In Vivo Imaging System (Perkin Elmer, Wellesley, MA, USA) according to the manufacturer’s instructions. Tumor volume (V = L × l2 × 0.52) was determined with a caliper and the endpoint was determined as a tumor volume of 1000 mm^3. […] The mice were sacrificed when the tumor reached 1000 mm^3. […] No statistical methods were used to predetermine the sample size of the experiments. Animal facility availability and cost were used to determine sample sizes. Two independent cohorts of five mice per group were used for the tumor growth experiment with HD-MB03 cells and one cohort of five mice per group was used for the experiment with DAOY cells. Animal experiments were carried out in strict accordance with the recommendations in the Guide for the Care and Use of Laboratory Animals. Our experiments were approved by Direction de l’Action Sanitaire et Sociale of the Principality of Monaco and the ethics committee of Centre Scientifique de Monaco.\nas §1\nTumor samples were recovered from the animals and embedded in the OCT compound according to the manufacturer’s protocol (Thermo Fisher Scientific Inc., Waltham, MA, USA). After that, 5 µm thin sections were prepared with a cryostat (Leica Microsystems, Wetzlar, Germany). Incubation was carried out with the following antibodies diluted at 1:1000 in TBS supplemented with 1% horse serum and 1% BSA for 20 min at room temperature: anti-Ki67 (cat. number ab16667, Abcam, Cambridge, UK), anti-CD31 (cat. number 550274, BD Biosciences, Frankton Lake, NJ, USA) or anti-αSMA (cat. number A2547, Merck Millipore, Burlington, MA, USA). The preparations were then washed with TBS–0.025% Triton, incubated with anti-rabbit Alexa488 and anti-mouse Alex-555-coupled secondary antibodies (Cell Signaling Technology, Danvers, MA, USA), washed with TBS–0.025% Triton, and the nuclei were counterstained with Hoechst33342 (Thermo Fisher Scientific, Waltham, MA, USA). Fluorescence images of the cells were taken with a DMI400 inverted microscope equipped with a 40× objective (Leica Microsystemes, Nanterre, France) and a Zyla 5.5 camera (Andor Technologies, Belfast, UK) powered by the Micromanager software. At least one cross-section of nonoverlapping images of each tumor was acquired. All the images were then quantified with the CellProfiler 3.0 software."}, "DAOY": {"tested_on": "DAOY", "test": "Cumulative population doubling (CPD), DAOY", "type": "cell-based, human", "settings": "continuous treatment; axitinib 5 µM, etoposide 1 µM", "procedure": "as §2"}, "[4]": {"tested_on": "group 3 (D283, D458 and HD-MB03) and putative Shh group (DAOY) MB cell lines", "test": "MTT assay, mean IC50 over group 3 and Shh MB cell lines", "type": "cell-based", "settings": "Homo sapiens", "procedure": "HDF (3000 cells), C8-D1A (5000 cells), D458 (5000 cells), DAOY (2000 cells), HD-MB03 (10,000 cells) and CHLA-01-Med (10,000 cells) were seeded at an approximate confluency of 50% in 96-well plates (Corning Inc., Corning, NY, USA) in 100 µL medium per well. A range from 50 nM to 150 µM of every drug was tested. The effects of the antiangiogenic compounds were measured using a 3-[4,5-dimethylthiazol-2yl]-diphenyltetrazolium bromide (MTT) colorimetric assay (Sigma, Lyon, France) according to the manufacturer’s instructions. When applicable, IC50 was calculated using the nonlinear regression method of the Prism 5 software (Graphpad Software Inc., San Diego, CA, USA). […] An MTT assay was conducted as described above to assess the fitness of the cells."}, "HDF": {"tested_on": "HDF", "test": "Cell viability, propidium iodine incorporation, HDF", "type": "cell-based, human", "settings": "48 h; axitinib, cabozantinib 5 µM, etoposide 1 µM", "procedure": "Cell viability assays were conducted using a propidium iodine incorporation technique with an ADAM-sHIT automated cell counter (NanoEnTek, Gyeonggi-do, Korea) according to the manufacturer’s protocol."}, "[5]": {"tested_on": "normal cells (C8-D1A, HDF)", "test": "Proliferation index assay, normal cells", "settings": "120 h; axitinib 5 µM, etoposide 1 µM"}, "[6]": {"settings": "axitinib 50 mg/kg, etoposide 30 mg/kg, combination 25 + 15 mg/kg"}}, "data": [{"compound": "CNC(=O)c1ccccc1Sc1ccc2c(/C=C/c3ccccn3)n[nH]c2c1", "note": "[Axitinib, axitinib]", "values": [{"measurement": "maximum tolerated and recommended dose in children", "setting": "[1]", "result": 2.4, "unit": "mg/m^2"}, {"measurement": "axitinib content of cerebella (LC/MS)", "setting": "[2]", "result": "present in the cerebellum"}, {"measurement": "tumor growth (lognormal mathematical modelling)", "setting": "subcutaneous DAOY tumors", "result": "did not impair tumor growth"}, {"measurement": "long-term proliferation (CPD) of HD-MB03 cells", "setting": "HD-MB03", "result": "strongly impaired their proliferation"}, {"measurement": "permeability of the barrier formed by HUVEC", "setting": "barrier formed by HUVEC", "result": "permeabilized the barrier"}, {"measurement": "number of endothelial cells (CD31-positive) and/or pericytes/cancer-associated fibroblasts (αSMA-positive)", "setting": "[3]", "result": "did not impact"}, {"measurement": "surface of necrotic areas", "setting": "[3]", "result": "increased the surface of necrotic areas"}, {"measurement": "tumor growth rates (linear regression, growth phase)", "setting": "[3]", "result": "reduced"}, {"measurement": "median time to reach the endpoint volume (1000 mm^3)", "setting": "[3]; [6]", "result": 18, "unit": "days"}, {"measurement": "range of time to reach the endpoint volume (1000 mm^3)", "setting": "[3]; [6]", "result": "13 to 63", "unit": "days"}, {"measurement": "long-term proliferation (CPD) of DAOY cells", "setting": "DAOY", "result": "strongly impaired their proliferation"}, {"measurement": "IC50", "setting": "[4]", "result": "1100 ± 900", "unit": "nM"}, {"measurement": "viability of HDF normal cells", "setting": "HDF", "result": "no effect on the viability"}, {"measurement": "proliferation of normal cells", "setting": "[5]", "result": "impaired in these conditions, although to a lower extent"}]}]}
